≈ marks a conversion by molar mass, not a printed value.
Columns and labels:
Assay type in all cases: functional
Enterococcus faecalis [1] = experiment: Antimicrobial activity against Enterococcus faecalis VRE-309 after 16 hrs by broth microdilution method; details: VRE-309, 16 h
Klebsiella pneumoniae = experiment: Antimicrobial activity against Klebsiella pneumoniae KP-249 clinical isolate after 16 hrs by broth microdilution method; details: KP-249, 16 h
Staphylococcus aureus [2] = experiment: Antimicrobial activity against Staphylococcus aureus ATCC 6538 after 16 hrs by broth microdilution method; details: ATCC 6538, 16 h
Pseudomonas aeruginosa = experiment: Antimicrobial activity against Pseudomonas aeruginosa PAO1 after 16 hrs by broth microdilution method; details: PAO1, 16 h
Staphylococcus aureus [3] = experiment: Antimicrobial activity against methicillin-resistant Staphylococcus aureus Chaoyang clinical isolate after 16 hrs by broth microdilution method
Staphylococcus aureus [4] = experiment: Antimicrobial activity against methicillin-resistant Staphylococcus aureus 309-3 clinical isolate after 16 hrs by broth microdilution method; details: 309-3, 16 h
Staphylococcus aureus [5] = experiment: Antimicrobial activity against methicillin-resistant Staphylococcus aureus 8-24 clinical isolate after 16 hrs by broth microdilution method; details: 8-24, 16 h
Staphylococcus aureus [6] = experiment: Antimicrobial activity against methicillin-resistant Staphylococcus aureus 309-4 clinical isolate after 16 hrs by broth microdilution method; details: 309-4, 16 h
Staphylococcus aureus [7] = experiment: Antimicrobial activity against methicillin-resistant Staphylococcus aureus 8-21 clinical isolate after 16 hrs by broth microdilution method; details: 8-21, 16 h
Staphylococcus aureus [8] = experiment: Antimicrobial activity against methicillin-resistant Staphylococcus aureus 309-1 clinical isolate after 16 hrs by broth microdilution method; details: 309-1, 16 h
Staphylococcus aureus [9] = experiment: Antimicrobial activity against methicillin-resistant Staphylococcus aureus 6-42 clinical isolate after 16 hrs by broth microdilution method; details: 6-42, 16 h
Staphylococcus aureus [10] = experiment: Antimicrobial activity against methicillin-resistant Staphylococcus aureus 309-6 clinical isolate after 16 hrs by broth microdilution method; details: 309-6, 16 h
Staphylococcus aureus [11] = experiment: Antimicrobial activity against methicillin-resistant Staphylococcus aureus 309-8 clinical isolate after 16 hrs by broth microdilution method; details: 309-8, 16 h
Enterococcus faecalis [12] = experiment: Antimicrobial activity against vancomycin-susceptible Enterococcus faecalis after 16 hrs by broth microdilution method
Bacillus spizizenii = experiment: Antimicrobial activity against Bacillus subtilis ATCC 6633 after 16 hrs by broth microdilution method; details: ATCC 6633, 16 h
Staphylococcus aureus [13] = experiment: Antimicrobial activity against methicillin-resistant Staphylococcus aureus 309-7 clinical isolate after 16 hrs by broth microdilution method; details: 309-7, 16 h
Staphylococcus aureus [14] = experiment: Antimicrobial activity against methicillin-resistant Staphylococcus aureus 6281 clinical isolate after 16 hrs by broth microdilution method; details: Staphylococcus aureus, 6281, 16 h

| SMILES | MIC (Enterococcus faecalis [1]) [µg/mL] | MIC (Klebsiella pneumoniae) [µg/mL] | MIC (Staphylococcus aureus [2]) [µg/mL] | MIC (Pseudomonas aeruginosa) [µg/mL] | MIC (Staphylococcus aureus [3]) [µg/mL] | MIC (Staphylococcus aureus [4]) [µg/mL] | MIC (Staphylococcus aureus [5]) [µg/mL] | MIC (Staphylococcus aureus [6]) [µg/mL] | MIC (Staphylococcus aureus [7]) [µg/mL] | MIC (Staphylococcus aureus [8]) [µg/mL] | MIC (Staphylococcus aureus [9]) [µg/mL] | MIC (Staphylococcus aureus [10]) [µg/mL] | MIC (Staphylococcus aureus [11]) [µg/mL] | MIC (Enterococcus faecalis [12]) [µg/mL] | MIC (Bacillus spizizenii) [µg/mL] | MIC (Staphylococcus aureus [13]) [µg/mL] | MIC (Staphylococcus aureus [14]) [µg/mL] |
| --- | --- | --- | --- | --- | --- | --- | --- | --- | --- | --- | --- | --- | --- | --- | --- | --- | --- |
| Cc1ccccc1NC(=S)N/N=C1\C(=O)Nc2c(F)cccc21 | 6.25 (≈ 19 µM) | > 100 | 3.12 (≈ 9.5 µM) | > 100 | 1.56 (≈ 4.75 µM) | 3.12 (≈ 9.5 µM) | 1.56 (≈ 4.75 µM) | 1.56 (≈ 4.75 µM) | 1.56 (≈ 4.75 µM) | 1.56 (≈ 4.75 µM) | 1.56 (≈ 4.75 µM) | 3.12 (≈ 9.5 µM) | 1.56 (≈ 4.75 µM) | 6.25 (≈ 19 µM) | ≤ 0.78 | 1.56 (≈ 4.75 µM) | 3.12 (≈ 9.5 µM) |
| O=C1Nc2c(F)cccc2/C1=N/NC(=S)Nc1ccc(F)cc1 | 3.12 (≈ 9.39 µM) | > 100 | 1.56 (≈ 4.69 µM) | > 100 | 0.78 (≈ 2.35 µM) | 1.56 (≈ 4.69 µM) | 1.56 (≈ 4.69 µM) | 1.56 (≈ 4.69 µM) | 1.56 (≈ 4.69 µM) | 1.56 (≈ 4.69 µM) | 1.56 (≈ 4.69 µM) | 3.12 (≈ 9.39 µM) | 1.56 (≈ 4.69 µM) | 3.12 (≈ 9.39 µM) | 1.56 (≈ 4.69 µM) | 1.56 (≈ 4.69 µM) | 3.12 (≈ 9.39 µM) |
| Cc1cccc(NC(=S)N/N=C2\C(=O)Nc3c(F)cccc32)c1 | 3.12 (≈ 9.5 µM) | > 100 | 1.56 (≈ 4.75 µM) | > 100 | 0.39 (≈ 1.19 µM) | 0.78 (≈ 2.38 µM) | 1.56 (≈ 4.75 µM) | 0.78 (≈ 2.38 µM) | 0.78 (≈ 2.38 µM) | 0.78 (≈ 2.38 µM) | 0.78 (≈ 2.38 µM) | 1.56 (≈ 4.75 µM) | 0.78 (≈ 2.38 µM) | 3.12 (≈ 9.5 µM) | ≤ 0.78 | 0.78 (≈ 2.38 µM) | 1.56 (≈ 4.75 µM) |
| COc1cccc(NC(=S)N/N=C2\C(=O)Nc3c(F)cccc32)c1 | > 100 | > 100 | 3.12 (≈ 9.06 µM) | > 100 | 1.56 (≈ 4.53 µM) | 1.56 (≈ 4.53 µM) | 3.12 (≈ 9.06 µM) | 1.56 (≈ 4.53 µM) | 1.56 (≈ 4.53 µM) | 1.56 (≈ 4.53 µM) | 1.56 (≈ 4.53 µM) | 3.12 (≈ 9.06 µM) | 1.56 (≈ 4.53 µM) | > 100 | 1.56 (≈ 4.53 µM) | 1.56 (≈ 4.53 µM) | 3.12 (≈ 9.06 µM) |
| Cc1ccc(NC(=S)N/N=C2\C(=O)Nc3c(Br)cccc32)cc1 | > 100 | > 100 | 1.56 (≈ 4.01 µM) | > 100 | 0.39 (≈ 1 µM) | 0.78 (≈ 2 µM) | 1.56 (≈ 4.01 µM) | 0.78 (≈ 2 µM) | 0.78 (≈ 2 µM) | 0.78 (≈ 2 µM) | 0.78 (≈ 2 µM) | 1.56 (≈ 4.01 µM) | 0.78 (≈ 2 µM) | > 100 | ≤ 0.78 | 0.78 (≈ 2 µM) | 3.12 (≈ 8.01 µM) |
| Cc1ccccc1NC(=S)N/N=C1\C(=O)Nc2c(Br)cccc21 | 6.25 (≈ 16.1 µM) | > 100 | 1.56 (≈ 4.01 µM) | > 100 | 0.78 (≈ 2 µM) | 1.56 (≈ 4.01 µM) | 1.56 (≈ 4.01 µM) | 1.56 (≈ 4.01 µM) | 1.56 (≈ 4.01 µM) | 1.56 (≈ 4.01 µM) | 0.78 (≈ 2 µM) | 1.56 (≈ 4.01 µM) | 1.56 (≈ 4.01 µM) | 12.5 (≈ 32.1 µM) | ≤ 0.78 | 0.78 (≈ 2 µM) | 3.12 (≈ 8.01 µM) |
| COc1cccc(NC(=S)N/N=C2\C(=O)Nc3c(Br)cccc32)c1 | > 100 | > 100 | 6.25 (≈ 15.4 µM) | > 100 | 0.78 (≈ 1.92 µM) | 3.12 (≈ 7.7 µM) | 1.56 (≈ 3.85 µM) | 1.56 (≈ 3.85 µM) | 1.56 (≈ 3.85 µM) | 1.56 (≈ 3.85 µM) | 1.56 (≈ 3.85 µM) | 6.25 (≈ 15.4 µM) | 3.12 (≈ 7.7 µM) | > 100 | ≤ 0.78 | 0.78 (≈ 1.92 µM) | 6.25 (≈ 15.4 µM) |
| O=C1Nc2c(Cl)cccc2/C1=N/NC(=S)Nc1cccc(Cl)c1 | 1.56 (≈ 4.27 µM) | > 100 | 1.56 (≈ 4.27 µM) | > 100 | 0.78 (≈ 2.14 µM) | 1.56 (≈ 4.27 µM) | 1.56 (≈ 4.27 µM) | 0.78 (≈ 2.14 µM) | 1.56 (≈ 4.27 µM) | 1.56 (≈ 4.27 µM) | 0.78 (≈ 2.14 µM) | 3.12 (≈ 8.54 µM) | 1.56 (≈ 4.27 µM) | 3.12 (≈ 8.54 µM) | ≤ 0.78 | 0.78 (≈ 2.14 µM) | 1.56 (≈ 4.27 µM) |
| COc1cccc(NC(=S)N/N=C2\C(=O)Nc3c(Cl)cccc32)c1 | > 100 | > 100 | 3.12 (≈ 8.65 µM) | > 100 | 0.78 (≈ 2.16 µM) | 1.56 (≈ 4.32 µM) | 1.56 (≈ 4.32 µM) | 0.78 (≈ 2.16 µM) | 1.56 (≈ 4.32 µM) | 1.56 (≈ 4.32 µM) | 0.78 (≈ 2.16 µM) | 3.12 (≈ 8.65 µM) | 1.56 (≈ 4.32 µM) | > 100 | ≤ 0.78 | 0.78 (≈ 2.16 µM) | 6.25 (≈ 17.3 µM) |

From ChEMBL document CHEMBL3611970, “Synthesis and evaluation of isatin-β-thiosemicarbazones as novel agents against antibiotic-resistant Gram-positive bacterial species” (2015)
